Key:
A549 = assay: MTT anti-proliferative assay, A549; details: Homo sapiens, A549, 48 h, read-out: IC50 A549
Procedure: (§2) The antitumor bioactivities of the tittle compounds in vitro were firstly evaluated against four different human tumor cell lines [breast lung cancer (A549), cervical cancer (Hela), liver cancer (HepG2), breast cancer (MCF-7)] via MTT assay, and a normal cell line [human lung fibroblast (WI-38)] was applied to assess the safety of the synthesized compounds. […] In this study, the tested compounds were diluted to the required concentration with culture medium, and growth inhibitory effects against the cell lines of the tittle compounds were determined by MTT colorimetric assay. […] The microplate reader was adopted to record the absorbance at 490 nm for each well of the plates.

Hela = assay: MTT anti-proliferative assay, Hela; details: Homo sapiens, 48 h, read-out: IC50 Hela
Procedure: as §2

HepG2 = assay: MTT anti-proliferative assay, HepG2; details: Homo sapiens, HepG2, 48 h, read-out: IC50 HepG2
Procedure: as §2

MCF-7 = assay: MTT anti-proliferative assay, MCF-7; details: Homo sapiens, MCF7, 48 h, read-out: IC50 MCF-7
Procedure: as §2

WI-38 = assay: MTT cytotoxicity assay, normal cell line WI-38; details: Homo sapiens, WI-38, 48 h, read-out: IC50 WI-38
Procedure: as §2

acetyl-histone H3 = assay: Western blot, acetylation of histone H3 in Hela cells; format: cell-based, human; details: 5 μM, reference drug
Procedure: (§1) Afterwards, the Hela cells were collected using centrifugation, and were then lysed by the lysate, which were carried out further centrifugation at 12,000 rpm for 30 min. The protein of supernatant obtained by centrifugation was quantified using the BCA kit (Beijing Solarbio Science & Technology Co., Ltd.), and the protein extracts were mixed with the SDS-PAGE protein loading buffer (Beijing Solarbio Science & Technology Co., Ltd.), which were subject to 100°C water bath for 10 min to sufficiently denaturate. The gel was gelatinized using the SDS Gel Kit (Beijing Solarbio Science & Technology Co., Ltd.) and protein extracts were separated by protein SDS-polyacrylamide gel electrophoresis and then transferred to Immobilon-NC Membrane (Beijing Solarbio Science & Technology Co., Ltd.). After the blocking with 5% non-fat dried milk in TBS for 90 min at room temperature, the membranes were incubated overnight with specific primary antibodies (AFFINITY BIOSCIENCE) at 4°C, which were further incubated with secondary antibodies for 2 h after washing three times with TBST. The chemiluminescence analysis system was applied to label the target protein with a specific primary antibody and the target protein was detected using a specific antibody.

acetyl-α-tubulin = assay: Western blot, acetylation of α-tubulin in Hela cells; format: cell-based, human; details: 5 μM, reference drug
Procedure: as §1

Structure (SMILES)	melting point [°C]	IC50 (A549) [µM]	IC50 (Hela) [µM]	IC50 (HepG2) [µM]	IC50 (MCF-7) [µM]	IC50 (WI-38) [µM]	acetylation level of histone H3 (acetyl-histone H3)	acetylation level of α-Tubulin (acetyl-α-tubulin)
O=C(CCCCCNC(=O)c1ccc(I)cc1)NCCO [b5, N-(6-((2-hydroxyethyl)amino)-6-oxohexyl)-4-iodobenzamide]	150.4 to 150.9	48.3 ± 0.92	61 ± 5.31	90.3 ± 8.18	64.5 ± 11.1	130 ± 5.02		
Cc1ccc(C(=O)NCCCCCC(=O)NCCO)cc1 [b6, N-(6-((2-hydroxyethyl)amino)-6-oxohexyl)-4-methylbenzamide]		26.9 ± 4.79	59.7 ± 2.67	77.2 ± 4.43	99.2 ± 1.9	144 ± 8.05		
CC(O)CNC(=O)CCCCCNC(=O)c1ccc(I)cc1 (centres unmarked) [a5, N-(6-((2-hydroxypropyl)amino)-6-oxohexyl)-4-iodobenzamide]	148.7 to 150.2	45.6 ± 2.81	35.8 ± 2.43	68.9 ± 1.95	63.2 ± 4.32	158 ± 3.16		
CC(O)CNC(=O)CCCCCNC(=O)c1ccc(-c2ccccc2)cc1 (centres unmarked) [a10, N-(6-((2-hydroxypropyl)amino)-6-oxohexyl)-[1, 1’-biphenyl]-4-carboxamide]	140.3 to 142.6	19.8 ± 2.11	38.4 ± 1.01	26.8 ± 3.22	48.4 ± 2.21	126 ± 7.83		
CC(O)CNC(=O)CCCCCNC(=O)c1ccccc1Cl (centres unmarked) [a3, 2-chloro-N-(6-((2-hydroxypropyl)amino)-6-oxohexyl) benzamide]	110.2 to 113.6							
O=C(CCCCCCC(=O)Nc1ccccc1)NO [SAHA, suberoylanilide hydroxamic acid, reference compound]							up-regulated	increase
Cc1cc(C)cc(C(=O)NCCCCCC(=O)NCCO)c1 [b7, N-(6-((2-hydroxyethyl)amino)-6-oxohexyl)-3,5-dimethylbenzamide]	110.1 to 111.8	32.3 ± 3.13	96.8 ± 2.09	88 ± 9.39	83.6 ± 23.2	184 ± 7.16		
CN(C)c1ccc(C(=O)NCCCCCC(=O)NCCO)cc1 [b11, 4-(dimethylamino)-N-(6-((2-hydroxyethyl)amino)-6-oxohexyl) benzamide]	120.4 to 122.3							
CC(O)CNC(=O)CCCCCNC(=O)c1ccc2ccccc2c1 (centres unmarked) [a11, N-(6-((2-hydroxypropyl)amino)-6-oxohexyl)-2-naphthamide]	111.6 to 113.6	26.6 ± 2.81	21.8 ± 2.42	29.2 ± 3.22	38.4 ± 2.12	109 ± 4.63		
O=C(CCCCCNC(=O)c1ccc(Cl)cc1)NCCO [b3, 4-chloro-N-(6-((2-hydroxyethyl)amino)-6-oxohexyl) benzamide]	112.4 to 115.9							
Cc1ccc(C(=O)NCCCCCC(=O)NCC(C)O)cc1 (centres unmarked) [a6, N-(6-((2-hydroxypropyl)amino)-6-oxohexyl)-4-methylbenzamide]	114.2 to 116.8	39.2 ± 3.88	19.6 ± 3.92	74.9 ± 2.05	44.8 ± 2.01	97.2 ± 6.36		
O=C(CCCCCNC(=O)c1ccc(Br)cc1)NCCO [b4, 4-bromo-N-(6-((2-hydroxyethyl)amino)-6-oxohexyl) benzamide]	115.7 to 118.7							
CC(O)CNC(=O)CCCCCNC(=O)c1ccc(C(F)(F)F)cc1 (centres unmarked) [a9, N-(6-((2-hydroxypropyl)amino)-6-oxohexyl)-4-(trifluoromethyl) benzamide]	106.3 to 108.1							
O=C(CCCCCNC(=O)c1ccccc1)NCCO [b1, N-(6-((2-hydroxyethyl)amino)-6-oxohexyl) benzamide]	111.2 to 114.5	33.1 ± 0.96	90.4 ± 2.21	84.5 ± 1.33	94.3 ± 15.3	194 ± 5.32		
CC(O)CNC(=O)CCCCCNC(=O)c1ccc(Cl)cc1 (centres unmarked) [a2, 4-chloro-N-(6-((2-hydroxypropyl)amino)-6-oxohexyl) benzamide]	93.9 to 95.7							
CC(O)CNC(=O)CCCCCNC(=O)c1ccc([N+](=O)[O-])cc1 (centres unmarked) [a7, N-(6-((2-hydroxypropyl)amino)-6-oxohexyl)-4-nitrobenzamide]	124.3 to 126.1	43.8 ± 4.82	25.8 ± 8.93	88.3 ± 8.64	58.7 ± 3.86	211 ± 4.32		

Further lines, with some results ahead:

melting point [°C]	IC50 (A549) [µM]	IC50 (Hela) [µM]	IC50 (HepG2) [µM]	IC50 (MCF-7) [µM]	Structure (SMILES)	IC50 (WI-38) [µM]	acetylation level of histone H3 (acetyl-histone H3)	acetylation level of α-Tubulin (acetyl-α-tubulin)
112.4 to 114.7					CC(O)CNC(=O)CCCCCNC(=O)c1ccc(Br)cc1 (centres unmarked) [a4, 4-bromo-N-(6-((2-hydroxypropyl)amino)-6-oxohexyl) benzamide]			
131.2 to 132.9					O=C(CCCCCNC(=O)c1ccc(F)cc1)NCCO [b2, 4-fluoro-N-(6-((2-hydroxyethyl)amino)-6-oxohexyl) benzamide]			
94.5 to 96.7	28.2 ± 0.87	38.1 ± 1.28	33.9 ± 2.71	93.2 ± 3.53	O=C(CCCCCNC(=O)c1ccc2c(c1)OCO2)NCCO [b10, N-(6-((2-hydroxyethyl)amino)-6-oxohexyl) benzo[d][1,3] dioxole-5-carboxamide]	193 ± 6.53		
115.1 to 117.8	33.4 ± 2.12	76.4 ± 6.78	37.6 ± 6.14	98.7 ± 7.67	O=C(CCCCCNC(=O)c1ccc2ccccc2c1)NCCO [b12, N-(6-((2-hydroxyethyl)amino)-6-oxohexyl)-2-naphthamide]	161 ± 8.64		
99.3 to 100.8					CC(O)CNC(=O)CCCCCNC(=O)c1ccc(F)cc1 (centres unmarked) [a1, 4-fluoro-N-(6-((2-hydroxypropyl)amino)-6-oxohexyl) benzamide]			
123.6 to 125.3	28.4 ± 2.01	35.6 ± 0.89	37.6 ± 2.89	44.6 ± 4.62	CC(O)CNC(=O)CCCCCNC(=O)c1ccc2c(c1)OCO2 (centres unmarked) [a12, N-(6-((2-hydroxypropyl)amino)-6-oxohexyl) benzo [d][1,3] dioxole-5-carboxamide]	147 ± 3.82		
105 to 106.3					O=C(CCCCCNC(=O)c1ccc(C(F)(F)F)cc1)NCCO [b9, N-(6-((2-hydroxyethyl)amino)-6-oxohexyl)-4-(trifluoromethyl) benzamide]			

Source: article PMC7174758, “Synthesis and Biological Evaluation of HDAC Inhibitors With a Novel Zinc Binding Group” (Frontiers in Chemistry, 2020)
